Earlier results on three molecules are cited in US20050090554A1, “Treatment of gastroparesis and nonulcer dyspepsia with GABAB agonists” (priority 2003, published 2005).

The conditions of data set [1]: administered isomer.
The conditions of data set [2]: with the exception of the upper small intestine (carrier-mediated transport).
The conditions of data set [3]: compared with the S-isomer.

Regarding `NC[C@@H](CC(=O)O)c1ccc(Cl)cc1` [(S)-baclofen], the “arterial blood pressure and heart rate” value in data set [1] is recorded as “decrease”.
For the molecule `NCC(CC(=O)O)c1ccc(Cl)cc1` (racemic) [baclofen, 4-amino-3-(p-chlorophenyl)-butyric acid], the “permeability in the GI tract” value in data set [2] is on record as “poor permeability”.
As to `NC[C@H](CC(=O)O)c1ccc(Cl)cc1` [(R)-baclofen], in data set [3], the half-life result is “longer”, the metabolic clearance result is recorded as “lower” and the systemic exposure entry is given as “higher”. The “arterial blood pressure and heart rate” value in data set [1] was “opposite effects”.
